Active and inactive are the calls of the source. No cut-off for these calls is given here.
What was measured:
[1] = tested on: GSC; test: Antiproliferative activity against human GSC cells at 0.001 to 1 uM after 4 days by MTS assay; assay type: functional, cell-based
[2] = target: RAC-beta serine/threonine-protein kinase (Homo sapiens) (UniProt P31751); test: Inhibition of His-tagged full-length human AKT2 expressed in baculovirus system at 100 nM by Z-lyte assay
[3] = target: Serine/threonine-protein kinase PAK 6 (Homo sapiens) (UniProt Q9NQU5); test: Inhibition of His-tagged full-length recombinant human PAK6 expressed in baculovirus system at 100 nM by Z-lyte assay
[4] = target: Protein kinase C alpha type (Homo sapiens) (UniProt P17252); test: Inhibition of His-tagged full-length human PRKACA expressed in Escherichia coli system at 100 nM by Z-lyte assay
[5] = target: Protein kinase C alpha type (Homo sapiens) (UniProt P17252); test: Inhibition of full-length human PRKCA expressed in baculovirus system at 100 nM by Z-lyte assay
[6] = tested on: RAF proto-oncogene serine/threonine-protein kinase (Homo sapiens), P04049 [Y340D,Y341D]; test: Inhibition of catalytic GST-tagged human RAF1 Y340D/Y341D double mutant expressed in baculovirus system at 100 nM by Z-lyte assay
[7] = target: Protein kinase C beta type (Homo sapiens) (UniProt P05771); test: Inhibition of full-length human PRKCB1 expressed in baculovirus system at 100 nM by Z-lyte assay
[8] = target: Serine/threonine-protein kinase B-raf (Homo sapiens) (UniProt P15056); test: Inhibition of GST-tagged full-length human BRAF expressed in baculovirus system at 100 nM by Z-lyte assay
[9] = target: Ribosomal protein S6 kinase beta-1 (Homo sapiens) (UniProt P23443); test: Inhibition of catalytic GST-tagged human RPS6KB1 expressed in baculovirus system at 100 nM by Z-lyte assay
[10] = target: Calcium/calmodulin-dependent protein kinase type II subunit alpha (Homo sapiens) (UniProt Q9UQM7); test: Inhibition of His-tagged full-length human CaMKII alpha expressed in baculovirus system at 100 nM by Z-lyte assay
[11] = target: Serine/threonine-protein kinase Chk2 (Homo sapiens) (UniProt O96017); test: Inhibition of His-tagged full-length human CHEK2 expressed in baculovirus system at 100 nM by Z-lyte assay
[12] = target: Interleukin-1 receptor-associated kinase 4 (Homo sapiens) (UniProt Q9NWZ3); test: Inhibition of His-tagged full-length human IRAK4 expressed in baculovirus system at 100 nM by Z-lyte assay
Chain of Interleukin-1 receptor-associated kinase 4 (Homo sapiens) (Q9NWZ3 whole entry): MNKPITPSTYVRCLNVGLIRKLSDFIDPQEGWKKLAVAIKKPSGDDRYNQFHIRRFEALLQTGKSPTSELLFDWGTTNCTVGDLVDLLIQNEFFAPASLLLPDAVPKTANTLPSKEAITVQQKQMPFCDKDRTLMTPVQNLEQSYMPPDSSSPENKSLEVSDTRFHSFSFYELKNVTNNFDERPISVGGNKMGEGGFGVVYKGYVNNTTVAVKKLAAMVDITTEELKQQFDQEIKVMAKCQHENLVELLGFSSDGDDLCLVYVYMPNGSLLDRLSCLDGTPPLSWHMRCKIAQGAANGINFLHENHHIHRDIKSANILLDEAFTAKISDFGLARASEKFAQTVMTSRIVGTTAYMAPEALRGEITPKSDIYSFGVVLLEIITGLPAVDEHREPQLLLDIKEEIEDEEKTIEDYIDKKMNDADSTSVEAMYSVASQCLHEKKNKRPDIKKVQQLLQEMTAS

[13] = target: Serine/threonine-protein kinase MRCK alpha (Homo sapiens) (UniProt Q5VT25); test: Inhibition of His-tagged human CDC42 BPA expressed in baculovirus system at 100 nM by Z-lyte assay
Chain of Serine/threonine-protein kinase MRCK alpha (Homo sapiens) (Q5VT25 whole entry): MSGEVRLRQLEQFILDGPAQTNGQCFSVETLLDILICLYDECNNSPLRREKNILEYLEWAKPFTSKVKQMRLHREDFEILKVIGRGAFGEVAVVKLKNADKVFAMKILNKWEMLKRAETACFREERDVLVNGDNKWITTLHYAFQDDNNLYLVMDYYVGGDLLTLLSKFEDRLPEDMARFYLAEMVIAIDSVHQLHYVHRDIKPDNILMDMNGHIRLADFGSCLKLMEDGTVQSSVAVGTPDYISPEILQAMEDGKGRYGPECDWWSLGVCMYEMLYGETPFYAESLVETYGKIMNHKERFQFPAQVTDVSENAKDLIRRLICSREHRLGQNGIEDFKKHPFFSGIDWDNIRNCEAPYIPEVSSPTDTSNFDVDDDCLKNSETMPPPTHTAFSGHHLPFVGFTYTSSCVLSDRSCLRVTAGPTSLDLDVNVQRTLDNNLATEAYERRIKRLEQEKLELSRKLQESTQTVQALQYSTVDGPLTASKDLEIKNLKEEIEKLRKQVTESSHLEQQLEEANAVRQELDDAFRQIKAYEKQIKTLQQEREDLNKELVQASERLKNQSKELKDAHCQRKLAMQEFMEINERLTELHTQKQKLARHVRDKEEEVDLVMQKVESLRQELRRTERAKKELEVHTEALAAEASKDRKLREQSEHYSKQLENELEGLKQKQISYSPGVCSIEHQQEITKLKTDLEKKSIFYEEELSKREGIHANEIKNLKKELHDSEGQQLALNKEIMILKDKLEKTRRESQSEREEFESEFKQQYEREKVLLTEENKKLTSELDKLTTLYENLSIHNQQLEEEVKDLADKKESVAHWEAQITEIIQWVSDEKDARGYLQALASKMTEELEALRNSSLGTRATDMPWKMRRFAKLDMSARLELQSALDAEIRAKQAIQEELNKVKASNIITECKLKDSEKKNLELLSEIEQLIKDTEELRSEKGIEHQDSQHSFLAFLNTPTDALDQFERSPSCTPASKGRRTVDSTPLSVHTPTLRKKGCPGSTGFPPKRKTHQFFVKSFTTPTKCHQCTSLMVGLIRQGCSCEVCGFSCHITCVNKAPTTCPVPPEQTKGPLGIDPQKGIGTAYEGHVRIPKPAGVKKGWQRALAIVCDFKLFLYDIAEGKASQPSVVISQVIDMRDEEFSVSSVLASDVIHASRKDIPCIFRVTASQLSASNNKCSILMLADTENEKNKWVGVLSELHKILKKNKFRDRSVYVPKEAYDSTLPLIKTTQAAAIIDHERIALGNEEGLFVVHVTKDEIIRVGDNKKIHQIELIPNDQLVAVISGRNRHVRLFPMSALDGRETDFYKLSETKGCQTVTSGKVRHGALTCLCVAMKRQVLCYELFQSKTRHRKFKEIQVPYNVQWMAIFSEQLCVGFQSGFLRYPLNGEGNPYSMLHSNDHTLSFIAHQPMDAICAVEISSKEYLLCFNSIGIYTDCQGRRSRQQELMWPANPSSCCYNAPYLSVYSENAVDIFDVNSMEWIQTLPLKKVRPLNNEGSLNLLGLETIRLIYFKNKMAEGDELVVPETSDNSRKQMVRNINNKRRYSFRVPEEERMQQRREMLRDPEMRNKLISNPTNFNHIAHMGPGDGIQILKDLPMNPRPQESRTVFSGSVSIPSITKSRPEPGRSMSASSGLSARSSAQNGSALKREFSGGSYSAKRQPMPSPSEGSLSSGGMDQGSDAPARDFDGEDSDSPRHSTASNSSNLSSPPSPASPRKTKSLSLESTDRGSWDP

[14] = target: Rho-associated protein kinase 1 (Homo sapiens) (UniProt Q13464); test: Inhibition of catalytic GST-tagged human ROCK1 expressed in baculovirus system at 100 nM by Z-lyte assay
[15] = target: Casein kinase I isoform gamma-1 (Homo sapiens) (UniProt Q9HCP0); test: Inhibition of GST-tagged full-length human CSNK1G1 expressed in baculovirus system at 100 nM by Z-lyte assay
Chain of Casein kinase I isoform gamma-1 (Homo sapiens) (Q9HCP0 whole entry, looked up, canonical isoform): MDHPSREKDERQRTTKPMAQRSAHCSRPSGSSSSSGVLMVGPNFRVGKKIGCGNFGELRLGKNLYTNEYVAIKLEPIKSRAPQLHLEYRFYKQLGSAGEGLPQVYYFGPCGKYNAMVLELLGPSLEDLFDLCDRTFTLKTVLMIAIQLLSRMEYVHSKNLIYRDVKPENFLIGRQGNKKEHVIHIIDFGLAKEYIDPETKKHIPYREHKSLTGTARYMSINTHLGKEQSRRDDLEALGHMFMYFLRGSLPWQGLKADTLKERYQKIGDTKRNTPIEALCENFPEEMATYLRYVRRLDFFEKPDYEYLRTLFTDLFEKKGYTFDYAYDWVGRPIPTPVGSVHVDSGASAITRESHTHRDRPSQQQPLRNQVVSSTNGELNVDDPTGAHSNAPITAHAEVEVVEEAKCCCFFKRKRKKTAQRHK

[16] = target: Protein kinase C zeta type (Homo sapiens) (UniProt Q05513); test: Inhibition of full-length recombinant human PRKCZ expressed in baculovirus system at 100 nM by Z-lyte assay
[17] = target: Tyrosine-protein kinase JAK1 (Homo sapiens) (UniProt P23458); test: Inhibition of cytosolic GST-tagged full-length recombinant human JAK1 expressed in baculovirus system at 100 nM by Z-lyte assay
Chain of Tyrosine-protein kinase JAK1 (Homo sapiens) (P23458 whole entry): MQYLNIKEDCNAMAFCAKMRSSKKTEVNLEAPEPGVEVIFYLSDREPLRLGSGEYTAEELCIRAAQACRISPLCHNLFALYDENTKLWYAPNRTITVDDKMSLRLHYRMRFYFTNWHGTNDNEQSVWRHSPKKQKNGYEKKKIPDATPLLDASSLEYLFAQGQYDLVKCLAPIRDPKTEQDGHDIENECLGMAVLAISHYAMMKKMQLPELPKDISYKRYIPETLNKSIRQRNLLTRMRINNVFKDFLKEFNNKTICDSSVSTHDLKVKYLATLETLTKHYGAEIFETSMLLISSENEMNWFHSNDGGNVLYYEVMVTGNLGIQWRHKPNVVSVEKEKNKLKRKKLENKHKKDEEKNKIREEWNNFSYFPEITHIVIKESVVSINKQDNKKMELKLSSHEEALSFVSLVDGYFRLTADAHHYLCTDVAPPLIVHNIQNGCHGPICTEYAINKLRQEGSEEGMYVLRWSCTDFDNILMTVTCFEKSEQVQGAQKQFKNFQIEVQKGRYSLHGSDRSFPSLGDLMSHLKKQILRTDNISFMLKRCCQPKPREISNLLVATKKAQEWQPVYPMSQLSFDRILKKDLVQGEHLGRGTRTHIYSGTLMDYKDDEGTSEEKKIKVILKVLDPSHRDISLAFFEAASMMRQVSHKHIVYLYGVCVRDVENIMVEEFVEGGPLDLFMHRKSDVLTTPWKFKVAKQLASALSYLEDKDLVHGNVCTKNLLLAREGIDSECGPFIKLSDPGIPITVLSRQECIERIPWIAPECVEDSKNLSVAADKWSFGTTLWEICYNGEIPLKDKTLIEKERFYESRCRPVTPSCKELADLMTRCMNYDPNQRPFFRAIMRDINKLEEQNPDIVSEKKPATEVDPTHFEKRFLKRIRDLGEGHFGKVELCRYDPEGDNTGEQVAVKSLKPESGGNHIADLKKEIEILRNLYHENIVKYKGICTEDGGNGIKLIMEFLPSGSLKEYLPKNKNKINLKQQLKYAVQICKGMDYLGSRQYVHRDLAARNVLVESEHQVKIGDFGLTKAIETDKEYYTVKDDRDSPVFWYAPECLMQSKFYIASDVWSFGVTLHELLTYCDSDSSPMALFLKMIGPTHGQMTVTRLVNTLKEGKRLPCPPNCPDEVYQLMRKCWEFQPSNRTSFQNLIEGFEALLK

[18] = target: Tyrosine-protein kinase BTK (Homo sapiens) (UniProt Q06187); test: Inhibition of His-tagged full-length human BTK expressed in baculovirus system at 100 nM by Z-lyte assay
[19] = target: Casein kinase I isoform alpha (Homo sapiens) (UniProt P48729); test: Inhibition of GST-tagged human CSNK1A1 expressed in baculovirus system at 100 nM by Z-lyte assay
[20] = target: AMP-activated protein kinase, AMPK (Homo sapiens) (UniProt P54646+O43741+P54619+Q9UGJ0+Q9Y478+Q13131+Q9UGI9); test: Inhibition of GST/His-tagged full-length human recombinant AMPK A1/B1/G1 expressed in baculovirus system at 100 nM by Z-lyte assay
[21] = Antiproliferative activity against human U87MG cells at 0.001 to 100 uM after 24 hrs by MTS assay; assay type: functional, U-87MG ATCC
[22] = Induction of apoptosis in human GSC cells assessed as live cells by measuring phosphatidylserine externalisation at 10 uM after 7 days by AnnexinV/FITC staining-based flow cytometry (reference value: 87.49%); assay type: functional
[23] = target: CDK2/Cyclin A2 (Homo sapiens) (UniProt P24941+P20248); test: Inhibition of GST-tagged human CDK2/Cyclin A expressed in baculovirus system at 100 nM by Z-lyte assay
[24] = target: Phosphatidylinositol 4-kinase beta (Homo sapiens) (UniProt Q9UBF8); test: Inhibition of GST-tagged full-length human PI4K beta expressed in baculovirus system at 100 nM by adapta assay
[25] = target: T1, 3-phosphoinositide-dependent protein kinase 1 (Homo sapiens) (UniProt O15530); test: Inhibition of PDK1-mediated cell migration in human U87MG cells at 10 uM […] measured at 6 to 24 hrs by scratch wound assay; assay type: cell-based; settings: U-87MG ATCC
T1 sequence (whole entry): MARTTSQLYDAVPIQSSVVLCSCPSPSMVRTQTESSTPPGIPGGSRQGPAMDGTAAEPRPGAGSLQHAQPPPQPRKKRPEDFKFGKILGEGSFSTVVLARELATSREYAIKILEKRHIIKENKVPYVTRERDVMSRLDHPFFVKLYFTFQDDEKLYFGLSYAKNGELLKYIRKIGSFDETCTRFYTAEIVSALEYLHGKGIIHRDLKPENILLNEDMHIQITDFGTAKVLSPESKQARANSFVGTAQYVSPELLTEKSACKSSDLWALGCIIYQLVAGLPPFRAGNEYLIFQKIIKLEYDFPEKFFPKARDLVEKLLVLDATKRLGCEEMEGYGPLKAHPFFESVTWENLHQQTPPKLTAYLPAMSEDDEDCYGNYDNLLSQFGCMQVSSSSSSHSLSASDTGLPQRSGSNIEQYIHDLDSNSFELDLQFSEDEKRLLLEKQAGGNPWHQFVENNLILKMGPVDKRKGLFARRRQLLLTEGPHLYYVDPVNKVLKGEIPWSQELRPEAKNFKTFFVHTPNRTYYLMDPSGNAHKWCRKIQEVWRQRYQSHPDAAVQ

[26] = target: RAC-gamma serine/threonine-protein kinase (Homo sapiens) (UniProt Q9Y243); test: Inhibition of His-tagged full-length human AKT3 expressed in baculovirus system at 100 nM by Z-lyte assay
Chain of RAC-gamma serine/threonine-protein kinase (Homo sapiens) (Q9Y243 whole entry): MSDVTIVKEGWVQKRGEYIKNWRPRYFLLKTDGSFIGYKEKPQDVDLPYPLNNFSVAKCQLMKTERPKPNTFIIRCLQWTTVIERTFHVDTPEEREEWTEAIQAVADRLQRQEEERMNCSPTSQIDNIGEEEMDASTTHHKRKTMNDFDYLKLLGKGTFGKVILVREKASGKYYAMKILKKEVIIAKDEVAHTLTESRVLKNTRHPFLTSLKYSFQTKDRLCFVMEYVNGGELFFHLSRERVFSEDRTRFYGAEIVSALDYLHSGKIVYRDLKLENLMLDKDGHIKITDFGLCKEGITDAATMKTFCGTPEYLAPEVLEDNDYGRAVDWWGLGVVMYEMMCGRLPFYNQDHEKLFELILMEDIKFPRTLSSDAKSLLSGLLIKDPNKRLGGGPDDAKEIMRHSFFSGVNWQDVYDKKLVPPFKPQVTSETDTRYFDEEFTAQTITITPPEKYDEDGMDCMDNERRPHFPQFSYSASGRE

[27] = tested on: U-87 MG; test: Induction of apoptosis in human U87MG cells assessed as late apoptotic cells by measuring phosphatidylserine externalisation at 10 uM after 72 hrs in presence of 7-amino-actinomysin by AnnexinV/FITC staining-based flow cytometry (reference value: 4.46%); assay type: functional, U-87MG ATCC

SMILES: O=C(CNC(=O)c1cccn(Cc2ccc(F)c(F)c2)c1=O)Nc1ccc2c(c1)/C(=C/c1cnc[nH]1)C(=O)N2
- Activity [1]: Active
- inhibition [2]: -4%
- inhibition [3]: -4%
- inhibition [4]: -5%
- inhibition [5]: 0%
- inhibition [6]: 10%
- inhibition [7]: -10%
- inhibition [8]: 17%
- inhibition [9]: -6%
- inhibition [10]: 0%
- inhibition [11]: 4%
- inhibition [12]: -6%
- inhibition [13]: -3%
- inhibition [14]: -7%
- inhibition [15]: 3%
- inhibition [16]: -3%
- inhibition [17]: -8%
- inhibition [18]: -3%
- inhibition [19]: -2%
- inhibition [20]: 7%
- Imax [21]: 41%
- Activity [22]: 58.6%
- inhibition [23]: 4%
- inhibition [24]: 4%
- inhibition [25]: Active
- inhibition [26]: 2%
- Activity [27]: 5.65%

From ChEMBL document CHEMBL3822377, “Locking PDK1 in DFG-out conformation through 2-oxo-indole containing molecules: Another tools to fight glioblastoma” (Eur J Med Chem, 2016)
